This is an account of results in article PMC12916490 (Molecular Psychiatry, 2025).

One experiment addresses T1, hTAAR1 (Homo sapiens, UniProt Q96RJ0).
T1 construct: expressed in transfected cells
T1 sequence (Q96RJ0 1-339): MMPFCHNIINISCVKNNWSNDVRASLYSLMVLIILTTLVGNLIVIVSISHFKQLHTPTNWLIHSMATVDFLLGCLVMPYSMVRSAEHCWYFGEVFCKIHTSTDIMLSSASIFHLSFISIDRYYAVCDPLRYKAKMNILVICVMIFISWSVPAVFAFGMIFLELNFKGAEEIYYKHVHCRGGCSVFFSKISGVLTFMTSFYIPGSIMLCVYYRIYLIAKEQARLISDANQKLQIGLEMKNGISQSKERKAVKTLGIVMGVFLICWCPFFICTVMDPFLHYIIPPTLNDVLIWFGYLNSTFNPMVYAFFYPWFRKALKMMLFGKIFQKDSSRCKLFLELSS
The experiment in a line: Functional activity at human TAAR1 (cAMP). The experiment is classed as cell-based. How it is done:
Activity at the human trace amine-associated receptor 1 (hTAAR1) was determined as previously described. More information can be found in the Supplementary information.
Then, the obtained RA values were used to calculate the bias factor (β) for each pathway combination. […]
pathway 1 over pathway 2. Brown-Forsythe and Welch ANOVA analyses were applied to estimate the statistical probability that β is different from zero.
3.3 Functional activity at the human TAAR1 […]
receptor 1 (hTAAR1) were generated by transfection with Lipofectamine 2000 (Invitrogen, Zug, Switzerland). The cells were harvested and pelleted by centrifugation at 900 rpm for 3 min at room temperature. The supernatant was then removed, and the cell pellet was resuspended in fresh culture medium. The cells were plated into 96 -well plates (100 μL, containing 80,000 cells per well) and incubated […]
The culture medium was removed, and the cells were washed once with 50 μL phosphate buffered saline without Ca2+ and Mg2+. Thereafter, 90 μL of Krebs -Ringer bicarbonate buffer (Sigma- […]
to 10 μM cAMP) was included on each plate. In addition, a reference plate containing RO5256390, β-phenylethylamine, and p-tyramine was included in each experiment. Test compound solution, β-phenylethylamine (as maximal response), or basal control were added at a volume of 30 μL, and the cells […]
Afterwards, the cells were lysed with 50 μL of detection mix solution […]
under heavy shaking. Fluorescence was then measured.
3.4 Plasma and brain tissue analysis
3.4.1 Analytical standards […]
to spike blank plasma or tissue homogenate at calibration standards of 1, 2.5, 5, 10, 25, 50, 100, 250, and […]
Extraction was performed by protein precipitation with 150 µL of acetonitrile added to 50 µL plasma in a 2-mL centrifuge tube. The samples were then vortexed for 10 s and shaken for 3 min at […]

In experiment [1] the test system is C57BL/6 J mice. The experiment in a line: Head-twitch response (HTR) dose-response in mice, 30-min session. It counts as in vivo, mouse. To be noted: for HTR (count/30 min): mean ± SEM. The protocol:
(§1) Behavioral studies were conducted as previously described with minor modifications. Male C57BL/6 J mice (The Jackson Laboratory #000664, 24 mice/drug) were purchased at 8 weeks old, group housed for acclimation (3–5 per cage for 1–2 weeks) under a 12:12 light:dark cycle (07:00 local time = lights on), with ad libitum access to food and water at the NIDA IRP facilities in Baltimore, MD, USA. All experiments were approved by the NIDA IRP Animal Care and Use Committee. After acclimation to the vivarium facilities, each mouse was briefly anesthetized with isoflurane and a temperature transponder (14 × 2 mm, model IPTT-300, Bio Medic Data Systems, Inc., Seaford, DE, USA) was implanted subcutaneously (s.c.) on the back, posterior to the shoulder blades. After the implant, mice were single housed and allowed one week recovery prior to the start of experiments. […] Drugs were randomly assigned and administered s.c. as the weight of the form used at an injection volume of 0.01 mL/g body weight.
(§2) During experimental testing, mice were tested once every 1–2 weeks to avoid potential tolerance to behavioral effects of the test drugs and were tested 2–3 times in total per drug. Each test session began with a brief 5 min acclimation period to the testing arenas, followed by recording baseline body temperature using a handheld wand that was sensitive to the signals emitted from the s.c. transponder. After this, mice were injected s.c. with appropriate doses of test drug and returned to the chambers for a 30-min test session. During the dose-response sessions, locomotor activity was continuously recorded using open field chambers with photobeam arrays (Coulbourn Instruments, Holliston, MA, USA) that were modified with cylindrical inserts and custom floor panels that also allowed video recordings of each mouse to later quantify HTR activity (GoPro Hero 7 camera; 960p resolution at 120 frames per second). Videos for each mouse were analyzed post session using commercially available software used to quantify HTR as previously described.
(§3) Data analysis was performed with Prism software (version 10.1.2, GraphPad Software, Boston, MA, USA). The IC50 values from the radioligand binding assays were determined by nonlinear regression, using three independent concentration-response curves fitted to a one-site model. The Cheng-Prusoff equation was used to calculate Kᵢ values for the competing ligands. EC50 values were determined by applying nonlinear regression to concentration-response curves. Bias factors (β) were calculated based on the relative intrinsic activity approach. More detailed information can be found in the Supplementary information. Mean values for total number of HTR, change in body temperature from pre to post session (Δ°C), and total distance traveled (cm) for each drug dose were compared (p < 0.05) via Welch’s ANOVA with Dunnett’s T3 post test, comparing all doses to respective vehicle controls (0 mg/kg). Welch’s ANOVA with Dunnett’s T3 post test was also used to compare drug concentrations, but the data were compared to DOM in this case. Dose–response relationships for HTR and locomotor activities were plotted using bell-shaped curve fits, while temperature change data were plotted using four-parameter non-linear regression curve fits. The ascending phase of the HTR curve for each drug was used to determine ED50 potency values from four parameter non-linear regression fits. For combined DOM and DOAM administration, the plasma, brain tissue, and brain dialysate drug concentrations were compared using paired t-tests (p < 0.05). Ratios were compared using Holm-Sidak’s post hoc test following a repeated-measures one-way ANOVA (F (1.709, 6.835) = 70.80; p < 0.0001).
(§4) Locomotor activity and body temperature were also assessed to monitor other pharmacological effects of the drugs that may impact the HTR. […]

The subject of experiment [2] is C57BL/6 J mice. The experiment in a line: Body temperature change in mice (dose-response sessions). The settings on record: pre to post 30-min session, mean ± SEM. The experiment is classed as in vivo, mouse. How it is done: as §1, §2, §3, §4

The structures appear in SMILES notation.

The term EC50 denotes the concentration that produces a half-maximal response. For orientation: Emax means the greatest response seen or fitted, relative to the assay's reference. What is called ED50 is the dose at which the effect has come halfway, by size or by number of responders. `CCCc1cc(OC)c(CC(C)N)cc1OC.Cl` (stereo not shown) [DOPR, 4-propyl-2,5-dimethoxyamphetamine hydrochloride]: the EC50 on hTAAR1 came out at 10.1 µM. In addition, the Emax at hTAAR1 (mean (95% CI), β-phenylethylamine as maximal response, read-out: hTAAR1 Activation efficacy Emax) was 95%. The “HTR (count/30 min)” value is on record as 6.2 ± 0.9 count in the experiment on C57BL/6 J mice [1] (0.01 mg/kg s.c.); 9.7 ± 2.2 count in the experiment on C57BL/6 J mice [1] (0.03 mg/kg s.c.); 22.7 ± 2.8 count with C57BL/6 J mice [1] (0.1 mg/kg s.c.); 53.6 ± 2.9 count in the experiment with C57BL/6 J mice [1] (0.3 mg/kg s.c.); 98.2 ± 2.3 count in the experiment on C57BL/6 J mice [1] (1 mg/kg s.c.); 58.0 ± 9.6 count in the experiment with C57BL/6 J mice [1] (3 mg/kg s.c.). In addition, the “HTR (count/30 min)” value with C57BL/6 J mice [1] (10 mg/kg s.c.) worked out at 21.2 ± 3.0 count. In addition, in the experiment with C57BL/6 J mice [1] (Mus musculus, sc, 0.5 h, read-out: HTR in mice ED50 (95% CI), s.c., 30 min session, ascending phase of dose-response curve), the ED50 came to 0.42 mg/kg. In the experiment with C57BL/6 J mice [1] (s.c., 30 min session), the “HTR in mice Emax” value was 98 total HTR count. In addition, in the experiment on C57BL/6 J mice [1] (s.c., 30 min session), the “HTR in mice Maximum rate” value stood at 20 HTR count/5 min. In addition, the ΔTemperature is 0.3 ± 0.2 °C with C57BL/6 J mice [2] (0.01 mg/kg s.c.); 0.1 ± 0.1 °C with C57BL/6 J mice [2] (0.03 mg/kg s.c.); 0.1 ± 0.2 °C in the experiment on C57BL/6 J mice [2] (0.1 mg/kg s.c.); 0.0 ± 0.2 °C in the experiment on C57BL/6 J mice [2] (0.3 mg/kg s.c.); -0.1 ± 0.1 °C in the experiment with C57BL/6 J mice [2] (1 mg/kg s.c.); -3.0 ± 0.6 °C in the experiment with C57BL/6 J mice [2] (3 mg/kg s.c.). Further, in the experiment on C57BL/6 J mice [2] (10 mg/kg s.c.), the ΔTemperature is -4.9 ± 0.5 °C.
